According to the C3SDB collision cross section collection:

Conditions: [M+H]+; instrument: TW; calibrated with phosphatidylcholines (ESI+) and phosphatidylethanolamines (ESI-)

collision cross section (N2)	SMILES
283.2 Å²	CCCCCCCCCCCCC=CC[C@@H](O)[C@H](COP(=O)([O-])OCC[N+](C)(C)C)NC(=O)CC=CCCCCCCCCCCCCCC [SM(d18:1/18:1)]
297.1 Å²	CCCCCCCCCCCCC=CC[C@@H](O)[C@H](COP(=O)([O-])OCC[N+](C)(C)C)NC(=O)CCCCCCCCCCCCCCCCCCCCC [SM(d18:1/22:0)]

More lines, now with the values behind:

SMILES	collision cross section (N2)
CC/C=C\C/C=C\C/C=C\C/C=C\C/C=C\C/C=C\CCC(=O)O[C@H](CO/C=C\CCCCCC/C=C\CCCCCCCC)COP(=O)(O)OCCN [PE(p40:7)]	283 Å²
CCCCCCCCCCCCC=CC[C@@H](O)[C@H](CO)NC(=O)CCCCCCCCCCCCCCCCC [Cer(d18:0/18:1)]	261.3 Å²
CCCCCCCCCCCCCCCCCCCCCC(=O)N[C@@H](CO)[C@H](O)CCCCCCCCCCCCCCC [Cer(d18:0/22:0)]	274.1 Å²
CCCCCCCCCCCCC=CC[C@@H](O)[C@H](CO)NC(=O)CCCCCCCCCCCCCCCCC [Cer(d18:1/18:0)]	261.2 Å²
CCCCC/C=C\C/C=C\C/C=C\C/C=C\CCCCCC(=O)O[C@H](COC(=O)CCCCCC/C=C\C/C=C\C/C=C\CCCCC)COP(=O)(O)OCCN [PE(42:7)]	291.7 Å²
CCCCCCCCCCCCCC/C=C\OC[C@@H](O)COP(=O)([O-])OCC[NH3+] [LPE(p16:0)]	215.6 Å²
CCCCCCCC/C=C\CCCCCC/C=C\OC[C@@H](O)COP(=O)([O-])OCC[NH3+] [LPE(p18:1)]	217.2 Å²
CCCCC/C=C\C/C=C\CCCCCCCCCCCC(=O)O[C@H](CO/C=C\CCCCCCCCCCCCCC)COP(=O)(O)OCCN [PE(p38:2)]	284 Å²
CCCCC/C=C\C/C=C\CCCCCCCCCC(=O)O[C@H](CO/C=C\CCCCCCCCCCCCCCCCCC)COP(=O)(O)OCCN [PE(p40:2)]	290 Å²
CCCCCCCCCCCCC=CC[C@@H](O)[C@H](CO)NC(=O)CCCCCCCCCCCCCCCCCCCCCCCCC [Cer(d18:0/26:1)]	284.5 Å²
CC/C=C\C/C=C\C/C=C\C/C=C\C/C=C\C/C=C\CCC(=O)O[C@H](CO/C=C\CCCCCCCCCCCCCCCC)COP(=O)(O)OCCN [PE(p40:6)]	283.5 Å²

Same assay, conditions: [M+Na]+; instrument: TW; calibrated with phosphatidylcholines (ESI+) and phosphatidylethanolamines (ESI-)

collision cross section (N2)	SMILES
275.1 Å²	CCCC/C=C\CCCCCCCC(=O)OC[C@H](COP(=O)(O)OC[C@@H](O)CO)OC(=O)CCCCCCCCC/C=C\C/C=C\CCCCC [PG(34:3)]
277.8 Å²	CCCCC/C=C\C/C=C\C/C=C\C/C=C\CCCC(=O)OC[C@H](COP(=O)(O)OC[C@@H](O)CO)OC(=O)CCCCCCC/C=C\CCCCCC [PG(36:5)]
296.8 Å²	CC/C=C\C/C=C\C/C=C\C/C=C\CCCCC(=O)OC[C@H](COP(=O)(O)O[C@H]1C(O)C(O)C(O)[C@@H](O)C1O)OC(=O)CCCCC/C=C\C/C=C\C/C=C\C/C=C\CCCCC (stereo partly drawn) [PI(40:8)]
298.6 Å²	CCCCCCCCCCCCCCCCCCC(=O)OC[C@H](COP(=O)(O)O[C@H]1C(O)C(O)C(O)[C@@H](O)C1O)OC(=O)CCCCCCCCCCCCCCCC (stereo partly drawn) [PI(36:0)]
298.8 Å²	CCCCC/C=C\C/C=C\C/C=C\C/C=C\CCCC(=O)O[C@H](COC(=O)CCCCCC/C=C\C/C=C\C/C=C\CCCCC)COP(=O)(O)O[C@H]1C(O)C(O)C(O)[C@@H](O)C1O (stereo partly drawn) [PI(40:7)]

The remaining lines, values behind:

SMILES	collision cross section (N2)
CCCCCCCCCCCCCCCCCC(=O)O[C@H](CO)COP(=O)(O)OCCN [LPE(18:0)]	224.8 Å²
CC/C=C\C/C=C\C/C=C\C/C=C\C/C=C\C/C=C\CCC(=O)O[C@H](CO/C=C\CCCCCC/C=C\CCCCCCCC)COP(=O)(O)OCCN [PE(p40:7)]	281 Å²
CC/C=C\C/C=C\C/C=C\C/C=C\CCCCC(=O)O[C@H](CO/C=C\CCCCCCCCCCCCCCCC)COP(=O)(O)OCCN [PE(p36:4)]	275.5 Å²
CCCCCCCCCCCCCC/C=C\OC[C@@H](O)COP(=O)([O-])OCC[NH3+] [LPE(p16:0)]	214.7 Å²
CCCCCCCC/C=C\CCCCCC/C=C\OC[C@@H](O)COP(=O)([O-])OCC[NH3+] [LPE(p18:1)]	216.5 Å²
CCCCC/C=C\C/C=C\CCCCCCCCCC(=O)O[C@H](CO/C=C\CCCCCCCCCCCCCCCCCC)COP(=O)(O)OCCN [PE(p40:2)]	291.1 Å²
CC/C=C\C/C=C\C/C=C\C/C=C\C/C=C\C/C=C\CCC(=O)O[C@H](CO/C=C\CCCCCCCCCCCCCCCC)COP(=O)(O)OCCN [PE(p40:6)]	286.8 Å²

Same assay, conditions: [M-H]-; instrument: TW; calibrated with phosphatidylcholines (ESI+) and phosphatidylethanolamines (ESI-)

collision cross section (N2)	SMILES
283.7 Å²	CCCCCCCCCC/C=C\CCCCCCCCCC(=O)O[C@H](COC(=O)CCCCCCCCCCC)COP(=O)(O)O[C@H]1C(O)C(O)C(O)[C@@H](O)C1O (stereo partly drawn) [PI(34:1)]
283.7 Å²	CCCCC/C=C\C/C=C\C/C=C\CCCCCCC(=O)OC[C@H](COP(=O)(O)OC[C@@H](O)CO)OC(=O)CCCCCCCCC/C=C\CCCCCCCC [PG(40:4)]

More lines, now with the values behind:

SMILES	collision cross section (N2)
CCCCCCCCCCCCCCCCCC(=O)O[C@H](CO)COP(=O)(O)OCCN [LPE(18:0)]	212.9 Å²
CCCCC/C=C\C/C=C\CCCCCCCC(=O)O[C@H](COC(=O)CCCCCCCCCCCCCCC)COP(=O)(O)O [PA(34:2)]	253.4 Å²
CCCCCCCC/C=C\CCCCCCCCCC(=O)O[C@H](COC(=O)CCCCCCCCCCCCC)COP(=O)(O)O [PA(34:1)]	254.7 Å²
CC/C=C\C/C=C\C/C=C\C/C=C\CCCCC(=O)O[C@H](CO/C=C\CCCCCCCCCCCCCCCC)COP(=O)(O)OCCN [PE(p36:4)]	264.6 Å²
CCCCCCCCCCCCC=CC[C@@H](O)[C@H](CO)NC(=O)CCCCCCCCCCCCCCCCC [Cer(d18:1/18:0)]	249.7 Å²
CC/C=C\C/C=C\C/C=C\C/C=C\C/C=C\C/C=C\CCC(=O)O[C@H](COC(=O)CCCCCCCCCCCCCCC)COP(=O)(O)O [PA(38:6)]	260.9 Å²
CCCCCCCCCCCCCC/C=C\OC[C@@H](O)COP(=O)([O-])OCC[NH3+] [LPE(p16:0)]	204.7 Å²
CCCCCCCC/C=C\CCCCCC/C=C\OC[C@@H](O)COP(=O)([O-])OCC[NH3+] [LPE(p18:1)]	208.9 Å²
CCCCC/C=C\C/C=C\CCCCCCCCCCCC(=O)O[C@H](CO/C=C\CCCCCCCCCCCCCC)COP(=O)(O)OCCN [PE(p38:2)]	272.7 Å²
CCCCCCCCCCCCC=CC[C@@H](O)[C@H](CO)NC(=O)CCCCCCCCCCCCCCC [Cer(d18:1/16:0)]	243.7 Å²
CC/C=C\C/C=C\C/C=C\C/C=C\C/C=C\C/C=C\CCC(=O)O[C@H](CO/C=C\CCCCCCCCCCCCCCCC)COP(=O)(O)OCCN [PE(p40:6)]	274.4 Å²
